Laboratory results reported in ChEMBL document CHEMBL3864123, “Drug discovery strategies to outer membrane targets in Gram-negative pathogens” (Bioorg Med Chem, 2016).
≈ marks a conversion by molar mass, not a printed value. Values belong to the molecule of their own block, whether it stands above or below them. *1 amine or outer side, *2 acyl side, *3 side chain or, on linkers, in order; H or OH if unused. Where a SMILES comes first, the peptide text is derived from it. Bridges are numbered along the chain shown (N, C = ends). [ ]: non-standard residue; d: D form. The star is where a group is joined. X1 = CC(C)=CCc1ccc(Cl)c2[nH]cc(CC(N[*:1])C(=O)[*:2])c12; Trp(7-Cl) = N[CH](Cc1c[nH]c2c(Cl)cccc12)C(=O)O; Malonyl = O=C(CC(=O)[*:2])[*:1]; Cya = N[CH](CS(=O)(=O)O)C(=O)O; dDab = NCC[C@@H](N)C(=O)O; Octanoyl = CCCCCCCC(=O)*; Orn = NCCC[C@H](N)C(=O)O; Dab = NCC[C@H](N)C(=O)O

Assays:
Acinetobacter baumannii = test: Antibacterial activity against Acinetobacter baumannii; assay type: functional
Pseudomonas aeruginosa [1] = test: Antibacterial activity against Pseudomonas aeruginosa; assay type: functional
Staphylococcus aureus [2] = test: Antibacterial activity against Staphylococcus aureus; assay type: functional
Escherichia coli [3] = test: Antibacterial activity against wild-type Escherichia coli; assay type: functional
Escherichia coli [4] = test: Antibacterial activity against Escherichia coli after 16 to 20 hrs by agar well diffusion method; assay type: functional
Pseudomonas aeruginosa [5] = test: Potentiation of colistin-induced antibacterial activity against Pseudomonas aeruginosa PAO1 infected in BALB/c mouse assessed as log reduction in bacterial burden in lungs at 2.08 mg/kg, it measured after 6 hrs by serial dilution method; assay type: functional, Lung
Escherichia coli [6] = test: Antibacterial activity against Escherichia coli by agar dilution method; assay type: functional
[7] = Hemolytic activity against human RBC; assay type: ADME, cell-based; conditions: erythrocyte
Pseudomonas aeruginosa [8] = test: Antibacterial activity against wild-type Pseudomonas aeruginosa measured after 16 hrs by serial dilution method; assay type: functional
Pseudomonas aeruginosa [9] = test: Antibacterial activity against MexABCDXY-deficit Pseudomonas aeruginosa measured after 16 hrs by serial dilution method; assay type: functional
Escherichia coli [10] = test: Antibacterial activity against wild-type Escherichia coli measured after 16 hrs by serial dilution method; assay type: functional
Escherichia coli [11] = test: Antibacterial activity against tolC-deficit Escherichia coli measured after 16 hrs by serial dilution method; assay type: functional
[12] = Inhibition of Escherichia coli LpxA after 15 mins by fluorescence polarization assay
[13] = Inhibition of Escherichia coli His6-tagged LpxD after 15 mins by fluorescence polarization assay
Pseudomonas aeruginosa [14] = test: Antibacterial activity against Pseudomonas aeruginosa ATCC 27853 by microdilution method; assay type: functional
Staphylococcus aureus [15] = test: Antibacterial activity against methicillin-resistant Staphylococcus aureus by CLSI broth dilution method; assay type: functional
Escherichia coli [16] = test: Antibacterial activity against tolC-deficit Escherichia coli in presence of human serum albumin; assay type: functional
Pseudomonas aeruginosa [17] = test: Antibacterial activity against Pseudomonas aeruginosa PAO1 measured after 16 to 20 hrs by microbroth dilution assay; assay type: functional
Escherichia coli [18] = test: Antibacterial activity against acrAB-efflux pump deficit Escherichia coli; assay type: functional
[19] = tested on: Staphylococcus epidermidis; test: Antibacterial activity against Staphylococcus epidermidis RP62A harboring wild-type SPase by CLSI microbroth dilution method; assay type: functional
Escherichia coli [20] = test: Antibacterial activity against Escherichia coli PAS0232 harboring SPase P84S mutant by CLSI microbroth dilution assay; assay type: functional
Pseudomonas aeruginosa [21] = test: Antibacterial activity against Pseudomonas aeruginosa PAS2006 harboring SPase P84S mutant by CLSI microbroth dilution assay; assay type: functional
[22] = tested on: Staphylococcus epidermidis; test: Antibacterial activity against Staphylococcus epidermidis PAS9001 harboring SPase S29P mutant by CLSI microbroth dilution assay; assay type: functional
[23] = tested on: Staphylococcus epidermidis; test: Antibacterial activity against Staphylococcus epidermidis PAS8001 harboring SPase P29S mutant by CLSI microbroth dilution method; assay type: functional
[24] = Selectivity ratio of MIC for Staphylococcus epidermidis PAS9001 harboring SPase S29P mutant to MIC for Staphylococcus epidermidis RP62A; assay type: functional

- MIC (Acinetobacter baumannii): 1 µg/mL (≈ 0.507 µM)
- MIC (Pseudomonas aeruginosa [1]): 4 µg/mL (≈ 2.03 µM)
- MIC (Staphylococcus aureus [2]): 2 µg/mL (≈ 1.01 µM)
- MIC (Escherichia coli [3]): 0.25 µg/mL (≈ 0.127 µM)
Molecule: CC[C@H](C)[C@@H]1NC(=O)[C@H](CCCNC(=N)N)NC(=O)[C@H](Cc2cc3ccccc3[nH]2)NC(=O)[C@@H]2CCCN2C(=O)[C@H]2CCCN2C(=O)[C@H](CCCNC(=N)N)NC(=O)[C@H](CCCNC(=N)N)NC(=O)[C@H](CC(C)C)NC(=O)[C@H](CCCNC(=N)N)NC(=O)[C@H](CCCCN)NC(=O)[C@H](Cc2c[nH]c3ccccc23)NC(=O)[C@@H](CCCNC(=N)N)NC(=O)[C@H]([C@@H](C)CC)NC(=O)[C@H](CCCNC(=N)N)NC1=O

- MIC90 (Escherichia coli [4]): 1 µg/mL (≈ 0.929 µM)
Molecule: CCCCCCCC(=O)N[C@H](C(=O)N[C@@H](CO)C(=O)N[C@H]1CCNC(=O)[C@H]([C@@H](C)O)NC(=O)[C@H](CCN)NC(=O)[C@H](CCN)NC(=O)[C@H](CC(C)C)NC(=O)[C@@H](Cc2ccccc2)NC(=O)[C@H](CCN)NC1=O)[C@@H](C)O (Octanoyl-TS[Dab][Dab][dF]L[Dab][Dab]T; lactam 3-C)

Molecule: CC[C@H](C)[C@H](NC(=O)[C@@H](N)Cc1ccccc1)C(=O)N[C@@H](CCCNC(=N)N)C(=O)N[C@@H](CC(C)C)C(N)=O (H-FIRL-NH2)
- Activity (Pseudomonas aeruginosa [5]): 1 log10CFU/ml

- MIC (Escherichia coli [6]): 3.12 µg/mL (≈ 4.98 µM)
Molecule: CCC[C@@H]1OC(=O)[C@@H](C)C[C@H](C)CCCCC(=O)CCC[C@@H](CC)CC/C=C(\COC)CC[C@@H](O)[C@@H](O)C[C@H](O)CNC1=O

Molecule: CC[C@H](C)[C@@H]1NC(=O)[C@H](Cc2c[nH]c3ccccc23)NC(=O)[C@H]([C@@H](C)O)NC(=O)[C@@H]2CCCN2C(=O)[C@H]2CCCN2C(=O)[C@H](CCN)NC(=O)[C@H](C)NC(=O)[C@H](CCN)NC(=O)[C@H](CCN)NC(=O)[C@H](Cc2c[nH]c3ccccc23)NC(=O)[C@H](CCN)NC(=O)[C@@H](CCN)NC(=O)[C@H](CCCCN)NC(=O)[C@H](CCN)NC1=O (cyclo(TWI[Dab]K[dDab][Dab]W[Dab][Dab]A[Dab][dP]P))
- Activity [7]: > 100 µg/mL

- MIC (Pseudomonas aeruginosa [8]): 4 µg/mL (≈ 17 µM)
- MIC (Pseudomonas aeruginosa [9]): 1 µg/mL (≈ 4.25 µM)
- MIC (Escherichia coli [10]): > 32 µg/mL
- MIC (Escherichia coli [11]): > 32 µg/mL
Molecule: N=C(N)SCc1ccc(Cl)c(Cl)c1

Molecule: H-TNLYMLPKWDIP-NH2
- Kd [12]: 20 µM
- Kd [13]: 6 µM

- MIC (Pseudomonas aeruginosa [14]): 0.25 µg/mL (≈ 0.677 µM)
Molecule: CC(C)(N)[C@H](NC(=O)c1ccc(C#CC#C[C@@H]2C[C@H]2CO)cc1)C(=O)NO [ACHN-975]

Molecule: CC(C)=CCc1ccc(Cl)c2[nH]cc(CC3NC(=O)C(Cc4c[nH]c5c(Cl)cccc45)NC(=O)C4CCCN4C(=O)C(CS(=O)(=O)O)NC(=O)C(NC(=O)C(NC(=O)C(C)NC(=O)CC(=O)O)C(C)C)COC(=O)C(CO)NC(=O)C(CC(C)C)NC(=O)C(C(C)C)NC3=O)c12 (configuration not stated) (Malonyl-AVS[Cya]P[Trp(7-Cl)][X1]VLS; ester 3-C; configuration not given here)
- MIC (Staphylococcus aureus [15]): 0.5 to 128 µg/mL (≈ 0.357 to 91.4 µM)

- MIC (Pseudomonas aeruginosa [14]): 0.008 µg/mL (≈ 0.00515 µM)
Molecule: CC[C@H](C)[C@@H]1NC(=O)[C@H](Cc2c[nH]c3ccccc23)NC(=O)[C@H]([C@@H](C)O)NC(=O)[C@@H]2CCCN2C(=O)[C@H]2CCCN2C(=O)[C@H](CO)NC(=O)[C@H](C)NC(=O)[C@H](CCN)NC(=O)[C@H](CCN)NC(=O)[C@H](Cc2c[nH]c3ccccc23)NC(=O)[C@H](CCN)NC(=O)[C@@H](CCN)NC(=O)[C@H](CCCN)NC(=O)[C@H](CCN)NC1=O [MUREPAVADIN] (cyclo(TWI[Dab][Orn][dDab][Dab]W[Dab][Dab]AS[dP]P))

- MIC (Escherichia coli [11]): < 0.063 µg/mL
- MIC (Escherichia coli [3]): 8 µg/mL (≈ 23.2 µM)
- MIC (Escherichia coli [16]): 16 µg/mL
Molecule: Fc1ccc(COc2cccc(-c3n[nH]cc3-c3ccncc3)c2)cc1

Molecule: C[C@@H](O)[C@H](NC(=O)c1ccc(C#Cc2ccc(CN3CCOCC3)cc2)cc1)C(=O)NO
- MIC (Pseudomonas aeruginosa [17]): 1 µg/mL (≈ 2.29 µM)

- MIC (Escherichia coli [6]): 1.56 µg/mL (≈ 2.19 µM)
Molecule: CCCCCCCCCC[C@H]1OC(=O)CNC(=O)[C@H]([C@@H](C)O)NC(=O)[C@H](CO)NC(=O)[C@H]([C@H](C)CC)NC(=O)[C@H](CC(C)C)N(C)C(=O)[C@@H]1C

- MIC (Escherichia coli [11]): 0.25 µg/mL (≈ 0.745 µM)
- MIC (Escherichia coli [3]): 32 µg/mL (≈ 95.4 µM)
- MIC (Escherichia coli [16]): 4 µg/mL
Molecule: CC(C)(C)c1nc(-c2ccc3c(c2)OCCO3)c(-c2ccncc2)[nH]1

- MIC (Escherichia coli [3]): 16 µg/mL (≈ 68 µM)
- MIC (Escherichia coli [18]): 8 µg/mL (≈ 34 µM)
Molecule: CN(C)c1ccc(C2=NCCCN2)c(S)c1

- MIC (Escherichia coli [3]): 16 µg/mL (≈ 83.2 µM)
- MIC (Escherichia coli [18]): 8 µg/mL (≈ 41.6 µM)
Molecule: Sc1ccccc1C1=NCCCN1

Molecule: CCCCCCCCCCCCCCCC(=O)N(C)[C@H](CO)C(=O)N[C@H](C)C(=O)NCC(=O)N(C)[C@@H]1C(=O)N[C@@H](C)C(=O)N[C@@H](C(=O)O)Cc2ccc(O)c(c2)-c2cc1ccc2O
- MIC [19]: 0.25 µg/mL (≈ 0.284 µM)
- MIC (Escherichia coli [20]): 4 µg/mL (≈ 4.54 µM)
- MIC (Pseudomonas aeruginosa [21]): 8 µg/mL (≈ 9.08 µM)
- MIC [22]: 8 µg/mL (≈ 9.08 µM)
- MIC [23]: 2 µg/mL (≈ 2.27 µM)
- Ratio [24]: 32

Molecule: CCCC(C)/C=C(/C)C(=O)OC(CCCCCCC/C=C/C(=O)NCCC(=O)NC(CS(=O)(=O)O)C(=O)N(C)C1C(=O)NC(C)C(=O)NC(C(=O)O)Cc2ccc(OS(=O)(=O)O)c(c2)-c2cc1cc(OS(=O)(=O)O)c2OC1O[C@H](C)[C@@H](O)[C@H](O)[C@@H]1O)CCC(C)C (some centres not stated)
- MIC (Staphylococcus aureus [15]): 16 to 128 µg/mL (≈ 11.9 to 94.9 µM)

- MIC (Escherichia coli [6]): 6.25 µg/mL (≈ 10 µM)
Molecule: CCC[C@@H]1OC(=O)[C@@H](C)C[C@H](C)CCCCC(=O)CCC[C@@H](CC)/C=C/C=C(\COC)CC[C@@H](O)[C@@H](O)C[C@H](O)CNC1=O
